The source made the active and inactive calls. No cut-off for these calls is given here.
What was measured:
[1] = system: HepG2; assay: Inhibition of colony formation in human HepG2 cells at 5 uM after 96 hrs by crystal violet staining-based assay; assay type: functional, cell-based
[2] = molecular target: Vascular endothelial growth factor receptor 1 (Homo sapiens, UniProt P17948); assay: Inhibition of recombinant FLT1 (unknown origin) after 60 mins by z'-lyte kinase assay
[3] = molecular target: T1, Aurora kinase B (Homo sapiens, UniProt Q96GD4); assay: Binding affinity to AURKB (unknown origin)
[4] = molecular target: T1, Aurora kinase B; assay: Inhibition of AURKB in human HepG cells assessed as reduction in histone H3 phosphorylation at 5 to 20 uM after 48 hrs by […] analysis; assay type: cell-based
[5] = Cytotoxicity against human PANC1 cells after 96 hrs by CCK-8 assay; assay type: functional, cell-based; conditions: PANC-1, 96 h
[6] = system: MCF7; assay: Cytotoxicity against human MCF7 cells after 96 hrs by CCK-8 assay; assay type: functional, cell-based; conditions: MCF7, 96 h
[7] = molecular target: Platelet-derived growth factor receptor alpha (Homo sapiens, UniProt P16234); assay: Inhibition of recombinant PDGFR alpha (unknown origin) after 60 mins by z'-lyte kinase assay
[8] = Cytotoxicity against human QGY7401 cells after 96 hrs by CCK-8 assay; assay type: functional, cell-based
[9] = system: HeLa; assay: Cell cycle arrest in human HeLa cells assessed as accumulation at G2/M phase at 20 uM after 48 hrs by flow cytometry relative to control; assay type: functional
[10] = system: HeLa; assay: Inhibition of colony formation in human HeLa cells after 96 hrs by crystal violet staining-based assay; assay type: functional, cell-based
[11] = molecular target: T1, Aurora kinase B; assay: Inhibition of AURKB in human HeLa cells assessed as reduction in Aurora B expression at 5 to 20 uM after 48 hrs by Western blotting analysis; assay type: cell-based
[12] = system: SW-620; assay: Cytotoxicity against human SW620 cells after 96 hrs by CCK-8 assay; assay type: functional, cell-based; conditions: SW-620, 96 h
[13] = system: HepG2; assay: Growth inhibition of human HepG2 cells at 5 to 20 uM after 96 hrs by CCK-8 assay; assay type: functional, cell-based
[14] = system: HepG2; assay: Inhibition of colony formation in human HepG2 cells after 96 hrs by crystal violet staining-based assay; assay type: functional, cell-based
[15] = molecular target: Aurora kinase C (Homo sapiens, UniProt Q9UQB9); assay: Inhibition of recombinant AURKC (unknown origin) after 60 mins by z'-lyte kinase assay
[16] = Antitumor activity against human QGY7401 cells xenografted in nude mouse assessed as reduction in tumor weight at 20 mg/kg, ip qd administered for 14 days measured on day 18 (reference value: 2.24 +/- 0.20 g); assay type: functional; conditions: route intraperitoneal
[17] = system: SW-620; assay: Inhibition of colony formation in human SW620 cells at 5 uM after 96 hrs by crystal violet staining-based assay; assay type: functional, cell-based
[18] = system: HT-29; assay: Cytotoxicity against human HT-29 cells after 96 hrs by CCK-8 assay; assay type: functional, cell-based; conditions: HT-29, 96 h
[19] = molecular target: Vascular endothelial growth factor receptor 2 (Homo sapiens, UniProt P35968); assay: Inhibition of recombinant KDR (unknown origin) after 60 mins by z'-lyte kinase assay
[20] = molecular target: Cyclin-dependent kinase 1/cyclin B1 (Homo sapiens, UniProt P06493); assay: Inhibition of recombinant CDK1/cyclin B (unknown origin) after 60 mins by z'-lyte kinase assay; assay type: protein-complex assay
[21] = molecular target: T1, Aurora kinase B; assay: Inhibition of AURKB in human HeLa cells assessed as reduction in histone H3 expression at 5 to 20 uM after 48 hrs by Western blotting analysis; assay type: cell-based
[22] = Antitumor activity against human QGY7401 cells xenografted in nude mouse assessed as inhibition of tumor growth at 10 mg/kg, ip qd administered for 14 days measured on day 18 relative to control; assay type: functional; conditions: route intraperitoneal, read-out: TGI
[23] = Cytotoxicity against human SKHEP1 cells after 96 hrs by CCK-8 assay; assay type: functional, cell-based; conditions: SK-HEP1, 96 h
[24] = system: HepG2; assay: Cell cycle arrest in human HepG2 cells assessed as accumulation at G2/M phase at 20 uM after 48 hrs by flow cytometry relative to control; assay type: functional
[25] = Antitumor activity against human QGY7401 cells xenografted in nude mouse assessed as reduction in body weight at 10 mg/kg, ip qd administered for 14 days measured on day 18 (reference value: 24.13 +/- 2.18 g); assay type: functional; conditions: route intraperitoneal
[26] = Cytotoxicity against human PC3 cells after 96 hrs by CCK-8 assay; assay type: functional, cell-based; conditions: PC-3, 96 h
[27] = molecular target: T1, Aurora kinase B; assay: Inhibition of AURKB in human SW620 cells assessed as reduction in histone H3 phosphorylation at 5 to 20 uM after 48 hrs by Western blotting analysis; assay type: cell-based; conditions: SW-620
[28] = Cytotoxicity against human SKOV3 cells after 96 hrs by CCK-8 assay; assay type: functional, cell-based; conditions: SK-OV-3, 96 h
[29] = system: SMMC-7721; assay: Cytotoxicity against human SMMC7721 cells after 96 hrs by CCK-8 assay; assay type: functional, cell-based; conditions: SMMC-7721, 96 h
[30] = Antitumor activity against human QGY7401 cells xenografted in nude mouse assessed as reduction in body weight at 20 mg/kg, ip qd administered for 14 days measured on day 18 (reference value: 24.13 +/- 2.18 g); assay type: functional; conditions: route intraperitoneal
[31] = molecular target: Glycogen synthase kinase-3 beta (Homo sapiens, UniProt P49841); assay: Inhibition of recombinant GSK-3 beta (unknown origin) after 60 mins by z'-lyte kinase assay
[32] = molecular target: AMP-activated protein kinase, AMPK; assay: Inhibition of recombinant AMPK A1/B1/G1 (unknown origin) after 60 mins by z'-lyte kinase assay; assay type: protein-complex assay, Homo sapiens
[33] = system: SW-620; assay: Growth inhibition of human SW620 cells at 5 to 20 uM after 96 hrs by CCK-8 assay; assay type: functional, cell-based
[34] = molecular target: T1, Aurora kinase B; assay: Inhibition of AURKB in human HepG2 cells assessed as reduction in Aurora B expression expression at 5 to 20 uM after 48 hrs by Western blotting analysis; assay type: cell-based
[35] = molecular target: T1, Aurora kinase B; assay: Inhibition of recombinant AURKB (unknown origin) after 60 mins by z'-lyte kinase assay

T1 sequence (Q96GD4 whole entry): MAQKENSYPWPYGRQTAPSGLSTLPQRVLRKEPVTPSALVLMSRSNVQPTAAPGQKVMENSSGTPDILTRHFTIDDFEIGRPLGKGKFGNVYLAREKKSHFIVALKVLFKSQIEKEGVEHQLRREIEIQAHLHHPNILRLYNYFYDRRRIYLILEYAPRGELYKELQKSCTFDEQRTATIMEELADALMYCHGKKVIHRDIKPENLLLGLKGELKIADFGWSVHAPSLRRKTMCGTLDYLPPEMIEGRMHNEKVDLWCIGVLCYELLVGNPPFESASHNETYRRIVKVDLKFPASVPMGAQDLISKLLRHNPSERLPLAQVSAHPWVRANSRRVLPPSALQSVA
Sequence of Vascular endothelial growth factor receptor 2 (P35968 whole entry): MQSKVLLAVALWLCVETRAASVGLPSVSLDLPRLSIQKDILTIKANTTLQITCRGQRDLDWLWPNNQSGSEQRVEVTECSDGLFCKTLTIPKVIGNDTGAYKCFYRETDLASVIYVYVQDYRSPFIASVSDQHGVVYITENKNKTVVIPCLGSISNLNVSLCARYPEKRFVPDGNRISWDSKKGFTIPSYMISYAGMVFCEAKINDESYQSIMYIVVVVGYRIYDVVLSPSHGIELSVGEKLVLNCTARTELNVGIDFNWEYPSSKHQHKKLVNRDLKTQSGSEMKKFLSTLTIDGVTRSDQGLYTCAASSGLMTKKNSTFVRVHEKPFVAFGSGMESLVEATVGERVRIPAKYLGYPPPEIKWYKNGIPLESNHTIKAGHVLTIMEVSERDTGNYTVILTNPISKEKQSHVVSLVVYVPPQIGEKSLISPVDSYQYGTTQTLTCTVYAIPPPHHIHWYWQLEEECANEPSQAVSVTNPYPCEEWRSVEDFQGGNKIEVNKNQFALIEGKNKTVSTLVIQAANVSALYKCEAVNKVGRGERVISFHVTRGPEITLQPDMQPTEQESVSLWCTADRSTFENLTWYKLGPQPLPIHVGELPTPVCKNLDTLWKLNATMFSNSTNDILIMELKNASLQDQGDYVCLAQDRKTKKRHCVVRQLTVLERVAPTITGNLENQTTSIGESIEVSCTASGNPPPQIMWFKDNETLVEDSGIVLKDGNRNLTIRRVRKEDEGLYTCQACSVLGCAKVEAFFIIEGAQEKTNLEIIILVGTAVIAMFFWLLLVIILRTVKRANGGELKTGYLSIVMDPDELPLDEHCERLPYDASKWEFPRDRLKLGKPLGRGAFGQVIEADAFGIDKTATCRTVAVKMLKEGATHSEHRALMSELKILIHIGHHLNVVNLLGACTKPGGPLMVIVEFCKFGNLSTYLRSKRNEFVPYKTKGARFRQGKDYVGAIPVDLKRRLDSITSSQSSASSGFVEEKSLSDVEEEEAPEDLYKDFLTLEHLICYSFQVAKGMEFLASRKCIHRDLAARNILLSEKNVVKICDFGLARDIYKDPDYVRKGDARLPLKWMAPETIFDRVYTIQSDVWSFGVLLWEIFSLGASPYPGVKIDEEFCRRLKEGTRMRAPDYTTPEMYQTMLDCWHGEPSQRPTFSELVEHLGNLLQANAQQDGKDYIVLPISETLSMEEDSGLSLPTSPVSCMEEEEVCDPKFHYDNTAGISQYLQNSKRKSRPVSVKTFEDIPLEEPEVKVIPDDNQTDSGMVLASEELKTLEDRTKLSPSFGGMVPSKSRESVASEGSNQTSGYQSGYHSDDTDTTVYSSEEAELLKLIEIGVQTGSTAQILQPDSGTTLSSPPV
Sequence of Platelet-derived growth factor receptor alpha (P16234 whole entry): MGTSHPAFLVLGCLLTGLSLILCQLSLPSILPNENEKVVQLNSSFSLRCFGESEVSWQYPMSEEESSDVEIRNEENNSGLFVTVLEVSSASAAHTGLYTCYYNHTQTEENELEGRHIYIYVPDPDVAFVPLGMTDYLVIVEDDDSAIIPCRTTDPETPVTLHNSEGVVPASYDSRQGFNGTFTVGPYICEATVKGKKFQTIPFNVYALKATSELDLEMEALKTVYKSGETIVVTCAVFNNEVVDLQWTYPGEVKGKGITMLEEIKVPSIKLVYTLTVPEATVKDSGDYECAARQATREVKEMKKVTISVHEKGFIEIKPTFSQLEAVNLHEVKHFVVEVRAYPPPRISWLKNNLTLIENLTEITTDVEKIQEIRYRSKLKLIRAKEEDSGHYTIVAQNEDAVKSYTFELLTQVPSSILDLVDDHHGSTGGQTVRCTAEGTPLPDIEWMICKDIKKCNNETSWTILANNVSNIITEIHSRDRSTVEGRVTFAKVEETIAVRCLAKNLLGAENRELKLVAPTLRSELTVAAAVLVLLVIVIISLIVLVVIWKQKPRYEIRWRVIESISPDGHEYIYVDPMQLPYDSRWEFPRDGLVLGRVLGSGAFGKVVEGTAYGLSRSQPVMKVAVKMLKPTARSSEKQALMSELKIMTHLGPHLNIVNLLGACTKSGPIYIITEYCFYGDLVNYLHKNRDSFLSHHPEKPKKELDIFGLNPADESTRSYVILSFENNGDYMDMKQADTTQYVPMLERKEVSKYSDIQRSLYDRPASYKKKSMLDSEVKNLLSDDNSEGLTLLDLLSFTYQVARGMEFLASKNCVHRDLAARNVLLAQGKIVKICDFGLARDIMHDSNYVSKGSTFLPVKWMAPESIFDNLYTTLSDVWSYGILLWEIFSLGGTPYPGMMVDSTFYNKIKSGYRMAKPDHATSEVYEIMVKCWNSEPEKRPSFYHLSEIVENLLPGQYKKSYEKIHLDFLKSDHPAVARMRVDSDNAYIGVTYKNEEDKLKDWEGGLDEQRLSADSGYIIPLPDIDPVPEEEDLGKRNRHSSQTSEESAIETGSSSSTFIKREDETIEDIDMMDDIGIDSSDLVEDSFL
Sequence of Glycogen synthase kinase-3 beta (P49841 whole entry): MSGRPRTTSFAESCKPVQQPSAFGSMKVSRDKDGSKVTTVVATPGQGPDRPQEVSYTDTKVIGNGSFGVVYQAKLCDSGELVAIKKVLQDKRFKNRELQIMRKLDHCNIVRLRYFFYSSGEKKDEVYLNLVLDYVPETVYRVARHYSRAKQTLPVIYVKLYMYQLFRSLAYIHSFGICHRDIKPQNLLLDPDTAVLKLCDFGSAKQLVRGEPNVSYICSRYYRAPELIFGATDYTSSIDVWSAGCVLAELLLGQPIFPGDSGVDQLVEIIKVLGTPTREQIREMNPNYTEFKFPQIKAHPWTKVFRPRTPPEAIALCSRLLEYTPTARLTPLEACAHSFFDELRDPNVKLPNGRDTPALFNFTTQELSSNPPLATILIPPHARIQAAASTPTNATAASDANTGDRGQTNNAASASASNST
Sequence of Cyclin-dependent kinase 1/cyclin B1 (P06493 whole entry): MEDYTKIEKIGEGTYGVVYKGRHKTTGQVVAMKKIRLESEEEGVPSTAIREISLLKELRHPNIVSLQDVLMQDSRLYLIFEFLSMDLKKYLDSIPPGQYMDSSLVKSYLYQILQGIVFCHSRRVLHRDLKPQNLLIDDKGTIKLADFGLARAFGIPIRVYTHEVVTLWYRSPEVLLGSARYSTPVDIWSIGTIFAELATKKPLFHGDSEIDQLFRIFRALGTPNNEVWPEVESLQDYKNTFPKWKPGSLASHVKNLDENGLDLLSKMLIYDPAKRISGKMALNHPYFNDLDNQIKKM
Sequence of Cyclin-dependent kinase 1/cyclin B1 (P14635 whole entry, further chain): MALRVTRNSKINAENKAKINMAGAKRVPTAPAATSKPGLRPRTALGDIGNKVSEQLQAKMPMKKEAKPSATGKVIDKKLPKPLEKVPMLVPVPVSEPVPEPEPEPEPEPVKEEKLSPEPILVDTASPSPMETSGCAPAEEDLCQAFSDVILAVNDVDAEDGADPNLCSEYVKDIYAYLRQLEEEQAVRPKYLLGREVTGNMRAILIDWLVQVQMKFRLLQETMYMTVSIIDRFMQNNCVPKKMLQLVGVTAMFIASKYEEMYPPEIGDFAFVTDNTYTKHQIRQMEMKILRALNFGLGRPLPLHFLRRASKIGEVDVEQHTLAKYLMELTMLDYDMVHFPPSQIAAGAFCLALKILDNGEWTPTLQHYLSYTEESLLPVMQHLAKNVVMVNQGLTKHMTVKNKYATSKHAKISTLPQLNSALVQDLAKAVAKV
Sequence of Aurora kinase C (Q9UQB9 whole entry): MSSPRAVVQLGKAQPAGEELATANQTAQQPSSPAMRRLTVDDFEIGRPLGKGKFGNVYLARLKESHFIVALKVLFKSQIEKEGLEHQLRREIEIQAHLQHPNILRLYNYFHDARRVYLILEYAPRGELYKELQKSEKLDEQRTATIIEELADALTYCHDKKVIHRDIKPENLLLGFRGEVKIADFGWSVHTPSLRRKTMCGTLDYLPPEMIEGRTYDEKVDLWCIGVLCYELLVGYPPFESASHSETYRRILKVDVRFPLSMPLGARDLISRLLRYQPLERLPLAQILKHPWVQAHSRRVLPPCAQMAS

Q: With O=C1/C(=C\c2ccc(O)c(O)c2)Oc2ccccc21 as the compound, how does the inhibition [1] read?
A: Its inhibition is “Active”.

Q: And the IC50 [2]?
A: The IC50 was 3.7 µM.

Q: What about the Kd [3] of the same compound?
A: Its Kd is 3.06 µM.

Q: And the inhibition [4]?
A: Its inhibition is “Active”.

Q: And the IC50 [5]?
A: Its IC50 is 36.5 µM.

Q: And the IC50 [6]?
A: Its IC50 is 16.2 µM.

Q: And the IC50 [7]?
A: The IC50 was 4.04 µM.

Q: What about the IC50 [8] of the same compound?
A: Its IC50 is 19.8 µM.

Q: And the Ratio [9]?
A: Its Ratio is 1.3.

Q: What about the inhibition [10] of the same compound?
A: Its inhibition is “Dose-dependent effect”.

Q: And the inhibition [11]?
A: The inhibition was “Active”.

Q: And the IC50 [12]?
A: The IC50 was 3.9 µM.

Q: And the “growth inhibition (GI)” value [13]?
A: Its value is “Active”.

Q: What about the inhibition [14] of the same compound?
A: The inhibition was “Dose-dependent effect”.

Q: And the IC50 [15]?
A: The IC50 was 4.75 µM.

Q: And the Activity [16]?
A: Its Activity is 1.44 g.

Q: What about the inhibition [17] of the same compound?
A: The inhibition was “Active”.

Q: And the IC50 [18]?
A: The IC50 was 34.9 µM.

Q: What about the IC50 [19] of the same compound?
A: The IC50 was 5.96 µM.

Q: What about the IC50 [20] of the same compound?
A: The IC50 was 37.4 µM.

Q: What about the inhibition [21] of the same compound?
A: Its inhibition is “Active”.

Q: What about the inhibition in vivo at 10 mg/kg [22] of the same compound?
A: The inhibition in vivo at 10 mg/kg was 39.2%.

Q: And the IC50 [23]?
A: Its IC50 is 41.9 µM.

Q: What about the Ratio [24] of the same compound?
A: The Ratio was 2.

Q: And the Activity [25]?
A: Its Activity is 21.87 g.

Q: What about the IC50 [26] of the same compound?
A: Its IC50 is over 50 µM.

Q: And the inhibition [27]?
A: The inhibition was “Active”.

Q: What about the IC50 [28] of the same compound?
A: Its IC50 is 26.1 µM.

Q: And the IC50 [29]?
A: Its IC50 is 20.3 µM.

Q: And the Activity [30]?
A: Its Activity is 22.14 g.

Q: And the IC50 [31]?
A: The IC50 was 2.63 µM.

Q: And the IC50 [32]?
A: The IC50 was 19.5 µM.

Q: What about the “growth inhibition (GI)” value [33] of the same compound?
A: Its value is “Active”.

Q: And the inhibition [34]?
A: The inhibition was “Active”.

Q: What about the IC50 [35] of the same compound?
A: Its IC50 is 0.735 µM.
